Experimental data taken from US12202844B2, “MAP4K1 inhibitors” (Blueprint Medicines Corporation, priority 2021, dated 2025).

Legend:
[1] = target: T1, MAP4K1 (HPK1) (Homo sapiens, UniProt Q92918); test: Inhibition of MAP4K1 biochemical enzymatic activity (EZReader 2 electrophoretic mobility shift); settings: HPK1 (Invitrogen), S6K2tide 1.5 μM, 120 min; ATP 26 μM or 1000 μM (not given)
T1 construct: purchased Invitrogen
In short: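 Untreated enzyme (0.1-15 nM) was incubated with 1.5 μM fluorescent peptide and 20-1000 μM ATP (apparent Km or 1 mM) in HEPES pH 7.5, MgCl2, DTT, Brij 35 at 25° C. for 60-180 min, with 1% DMSO and a 10-point 4-fold compound series. After an EDTA stop, product/substrate peptide peak ratio was read by mobility shift.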

[2] = tested on: Primary T Cell (expanded CD3+ T cells); test: T cell enhancement of cytokines: IL2 measurement (HTRF) in stimulated expanded CD3+ T cells; assay type: cell-based, human; settings: Homo sapiens, T-cell, 24 h, plate-bound anti-CD3 and soluble anti-CD28, 24 h, IL2 by HTRF; read-out: IL-2 Primary T Cell EC50
Procedure: T cells are isolated from whole blood of healthy donors by immunomagnetic negative selection following manufacture's protocol (StemCell Technologies, human T cell isolation kit). Purity of isolated cells is assessed by flow cytometry and yields 95-98% CD3^+ T cells. For expansion of T cells, 1×10^6 cells/well are plated in serum free cell expansion media (ThermoFisher) containing 30 U of recombinant human IL2 (R&D) and stimulated with 25 ul of CD3/CD28 beads (Invitrogen) in 24 well plates for 3-4 days. T cells are then expanded in 175 cm flasks and maintained at a cell density of 1 to 2.5×10^6 cells/ml days by addition of ⅔ of fresh media every 2-3 days. After 10-14 days, cells are frozen in BamBanker freezing media (Thermo) and stored in liquid nitrogen.
For IL2 measurement, expanded CD3^+ T cells are dispensed at 100K cells/well (cultured in X-VIVO 10 Serum-free media) and are stimulated with plate-bound anti-CD3 and soluble anti-CD28 in the presence of vehicle or compound of the disclosure at various concentrations for 24 h. As outlined in the manufacturer's protocol (Cisbio), 16 μL of conditioned media is transferred to a white 384-well low volume plate. Following a 24 h incubation with the anti-IL2 antibodies, the homogenous time resolved fluorescence (HTRF) is measured.

T1 sequence (Q92918 whole entry): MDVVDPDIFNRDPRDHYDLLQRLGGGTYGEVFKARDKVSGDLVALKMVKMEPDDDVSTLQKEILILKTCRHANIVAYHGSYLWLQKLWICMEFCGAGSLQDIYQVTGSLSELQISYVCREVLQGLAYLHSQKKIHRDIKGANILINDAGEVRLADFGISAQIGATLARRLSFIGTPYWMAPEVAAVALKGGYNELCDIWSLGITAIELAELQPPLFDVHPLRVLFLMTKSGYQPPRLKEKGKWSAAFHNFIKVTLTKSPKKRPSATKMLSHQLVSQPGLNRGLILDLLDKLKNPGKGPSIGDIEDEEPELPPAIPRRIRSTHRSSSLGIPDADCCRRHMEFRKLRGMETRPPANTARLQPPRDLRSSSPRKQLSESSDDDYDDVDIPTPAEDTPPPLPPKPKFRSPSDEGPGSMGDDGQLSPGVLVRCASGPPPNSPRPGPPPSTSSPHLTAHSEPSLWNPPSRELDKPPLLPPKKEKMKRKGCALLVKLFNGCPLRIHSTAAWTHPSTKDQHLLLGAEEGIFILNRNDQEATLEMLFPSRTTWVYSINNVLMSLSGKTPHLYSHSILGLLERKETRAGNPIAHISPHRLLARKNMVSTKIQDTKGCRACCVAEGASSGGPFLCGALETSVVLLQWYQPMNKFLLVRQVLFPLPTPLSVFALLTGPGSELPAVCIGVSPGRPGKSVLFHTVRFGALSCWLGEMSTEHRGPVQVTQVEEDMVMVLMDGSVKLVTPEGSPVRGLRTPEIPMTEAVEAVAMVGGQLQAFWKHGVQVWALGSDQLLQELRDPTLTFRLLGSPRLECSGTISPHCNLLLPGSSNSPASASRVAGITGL

Row | Structure (SMILES) | IC50 [1] [nM] | EC50 [2] [nM]
1 | CCS(=O)(=O)[C@H]1C[C@@H](Oc2ncc(C(C)(C)N)c3cc(Nc4ccc5c(n4)[C@@H](C)[C@H](C)OC5=O)ncc23)C1 [Compound 39, (7S,8R)-2-((5-(2-Aminopropan-2-yl)-8-((cis)-3-(ethylsulfonyl)cyclobutoxy)-2,7-naphthyridin-3-yl)amino)-7,8-dimethyl-7,8-dihydro-5H-pyrano[4,3-b]pyridin-5-one] | 0.13 | 11
2 | C[C@@H]1c2nc(Nc3cc4c(C(C)(C)N)cnc(O[C@H]5C[C@@H](S(C)(=O)=O)C5)c4cn3)ccc2C(=O)OC1(C)C [Compound 42, (R)-2-((5-(2-Aminopropan-2-yl)-8-(cis-3-(methylsulfonyl)cyclobutoxy)-2,7-naphthyridin-3-yl)amino)-7,7,8-trimethyl-7,8-dihydro-5H-pyrano[4,3-b]pyridin-5-one] | 0.09 | 9
3 | C[C@H](C[C@@H](C)S(C)(=O)=O)Oc1ncc(C(C)(C)N)c2cc(Nc3ccc4c(n3)[C@@H](C)[C@H](C)OC4=O)ncc12 [Compound 51] | 0.15 | 25
4 | CC[C@@](C)(N)c1cnc(O[C@H](C)CCS(C)(=O)=O)c2cnc(Nc3ccc4c(n3)[C@@H](C)[C@H](C)OC4=O)cc12 [Compound 52, (7S,8R)-2-((5-((R)-2-Aminobutan-2-yl)-8-(((R)-4-(methylsulfonyl)butan-2-yl)oxy)-2,7-naphthyridin-3-yl)amino)-7,8-dimethyl-7,8-dihydro-5H-pyrano[4,3-b]pyridin-5-one] | 0.13 | 9
5 | CC[C@@](C)(N)c1cnc(O[C@@H](C)CCS(C)(=O)=O)c2cnc(Nc3ccc4c(n3)[C@@H](C)[C@H](C)OC4=O)cc12 [Compound 53] | 0.11 | 21
6 | C[C@@H]1OC(=O)c2ccc(Nc3cc4c([C@](C)(N)C5CC5)cnc(O[C@H]5C[C@@H](S(C)(=O)=O)C5)c4cn3)nc2[C@H]1C [Compound 60] | 0.19 | 10
7 | CCS(=O)(=O)[C@H]1C[C@@H](Oc2ccc(C(C)(C)N)c3cc(Nc4ccc5c(n4)[C@@H](C)C(C)(C)OC5=O)ncc23)C1 [Compound 63] | 0.09 | 14
8 | CCS(=O)(=O)[C@H]1C[C@@H](Nc2ncc(C(C)(C)N)c3cc(Nc4ccc5c(n4)[C@@H](C)C(C)(C)OC5=O)ncc23)C1 [Compound 64] | 0.21 | 105
9 | C[C@H](CCS(C)(=O)=O)Oc1ncc(C(C)(C)N)c2cc(Nc3ccc4c(n3)C3(CC3)C(C)(C)OC4=O)ncc12 [Compound 67] | 0.77 | 40
10 | CC[C@@](C)(N)c1cnc(O[C@H]2C[C@@H](S(=O)(=O)CC)C2)c2cnc(Nc3ccc4c(n3)[C@@H](C)[C@H](C)OC4=O)cc12 [Compound 77] | 0.06 | 3
11 | CC[C@@](C)(N)c1cnc(O[C@H]2C[C@@H](S(C)(=O)=O)C2)c2cnc(Nc3ccc4c(n3)[C@@H](C)C(C)(C)OC4=O)cc12 [Compound 78] | 0.14 | 7
12 | CCS(=O)(=O)[C@H]1C[C@@H](Oc2ncc(C(C)(C)N)c3cc(Nc4ccc5c(n4)[C@@H](C)C(C)(C)OC5=O)ncc23)C1 [Compound 80] | 0.08 | 9
13 | C[C@@H]1OC(=O)c2ccc(Nc3cc4c(C(C)(C)N)cnc(O[C@H]5C[C@@H](S(=O)(=O)N(C)C)C5)c4cn3)nc2[C@H]1C [Compound 81] | 0.1 | 18
14 | CC[C@@](C)(N)c1cnc(O[C@H](C)C[C@@H](C)S(C)(=O)=O)c2cnc(Nc3ccc4c(n3)CC(C)(C)OC4=O)cc12 [Compound 87] | 0.13 | 29
15 | CC[C@@](C)(N)c1cnc(O[C@H](C)C[C@@H](C)S(C)(=O)=O)c2cnc(Nc3ccc4c(n3)C(C)(C)COC4=O)cc12 [Compound 88] | 0.21 | 23
16 | CC[C@@](C)(N)c1cnc(O[C@H](C)C[C@@H](C)S(C)(=O)=O)c2cnc(Nc3ccc4c(n3)[C@@H](C)[C@H](C)OC4=O)cc12 [Compound 90] | 0.11 | 3
17 | C[C@H](C[C@@H](C)S(C)(=O)=O)Oc1ncc(C(C)(C)N)c2cc(Nc3ccc4c(n3)[C@@H](C)C(C)(C)OC4=O)ncc12 [Compound 91] | 0.22 | 24
18 | CC[C@@](C)(N)c1cnc(O[C@H](C)CCS(C)(=O)=O)c2cnc(Nc3ccc4c(n3)[C@@H](C)C(C)(C)OC4=O)cc12 [Compound 94] | 0.14 | 26
19 | CC[C@@](C)(N)c1cnc(O[C@@H](C)CCS(C)(=O)=O)c2cnc(Nc3ccc4c(n3)[C@@H](C)C(C)(C)OC4=O)cc12 [Compound 95] | 0.08 | 52

Row | Structure (SMILES) | IC50 [1] [nM] | EC50 [2] [nM]
20 | C[C@@H]1c2nc(Nc3cc4c(C(C)(C)N)cnc(O[C@H]5C[C@@H](S(=O)(=O)C6CC6)C5)c4cn3)ccc2C(=O)OC1(C)C [Compound 102] | 0.14 | 15
21 | CC[C@@](C)(N)c1cnc(O[C@H](C)CCS(C)(=O)=O)c2cnc(Nc3ccc4c(n3)C3(CC3)C(C)(C)OC4=O)cc12 [Compound 105] | 0.37 | 41
22 | CC[C@@](C)(N)c1cnc(O[C@H]2C[C@@H](S(=O)(=O)CC)C2)c2cnc(Nc3ccc4c(n3)[C@@H](C)C(C)(C)OC4=O)cc12 [Compound 117] | 0.05 | 6
23 | C[C@@H]1c2nc(Nc3cc4c(C(C)(C)N)cnc(O[C@H]5C[C@@H](S(=O)(=O)N(C)C)C5)c4cn3)ccc2C(=O)OC1(C)C [Compound 118] | 0.11 | 27
24 | CCS(=O)(=O)[C@H]1C[C@@H](Oc2ncc([C@](C)(N)COC)c3cc(Nc4ccc5c(n4)[C@@H](C)[C@H](C)OC5=O)ncc23)C1 [Compound 122] | 0.1 | 27
25 | COC[C@@](C)(N)c1cnc(O[C@H]2C[C@@H](S(C)(=O)=O)C2)c2cnc(Nc3ccc4c(n3)[C@@H](C)C(C)(C)OC4=O)cc12 [Compound 123] | 0.16 | 34
26 | CC[C@@](C)(N)c1cnc(O[C@H](C)C[C@@H](C)S(=O)(=O)CC)c2cnc(Nc3ccc4c(n3)[C@@H](C)[C@H](C)OC4=O)cc12 [Compound 127, (7S,8R)-2-((5-((R)-2-Aminobutan-2-yl)-8-(((2R,4R)-4-(ethylsulfonyl)pentan-2-yl)oxy)-2,7-naphthyridin-3-yl)amino)-7,8-dimethyl-7,8-dihydro-5H-pyrano[4,3-b]pyridin-5-one] | 0.12 | 10
27 | CCS(=O)(=O)[C@H](C)C[C@@H](C)Oc1ncc(C(C)(C)N)c2cc(Nc3ccc4c(n3)[C@@H](C)C(C)(C)OC4=O)ncc12 [Compound 128] | 0.16 | 36
28 | CC[C@@](C)(N)c1cnc(O[C@H](C)C[C@@H](C)S(C)(=O)=O)c2cnc(Nc3ccc4c(n3)[C@@H](C)C(C)(C)OC4=O)cc12 [Compound 129] | 0.16 | 7
29 | CC[C@@](C)(N)c1cnc(O[C@@H](C)CCS(=O)(=O)CC)c2cnc(Nc3ccc4c(n3)[C@@H](C)C(C)(C)OC4=O)cc12 [Compound 132] | 0.19 | 66
30 | CC[C@@](C)(N)c1cnc(O[C@H](C)C[C@@H](C)S(C)(=O)=O)c2cnc(Nc3ccc4c(n3)C3(CC3)C(C)(C)OC4=O)cc12 [Compound 136, 2′-((5-((R)-2-Aminobutan-2-yl)-8-(((2R,4R)-4-(methylsulfonyl)pentan-2-yl)oxy)-2,7-naphthyridin-3-yl)amino)-7′,7′-dimethyl-5′H,7′H-spiro[cyclopropane-1,8′-pyrano[4,3-b]pyridin]-5′-one] | 0.28 | 10
31 | COC[C@@](C)(N)c1cnc(O[C@H]2C[C@H](CS(C)(=O)=O)C2)c2cnc(Nc3ccc4c(n3)[C@@H](C)C(C)(C)OC4=O)cc12 [Compound 139] | 0.36 | 74
32 | COC[C@@](C)(N)c1cnc(O[C@H]2C[C@@H](CS(C)(=O)=O)C2)c2cnc(Nc3ccc4c(n3)[C@@H](C)C(C)(C)OC4=O)cc12 [Compound 140] | 0.33 | 33
33 | CCS(=O)(=O)[C@H]1C[C@@H](Oc2ncc([C@](C)(N)COC)c3cc(Nc4ccc5c(n4)[C@@H](C)C(C)(C)OC5=O)ncc23)C1 [Compound 141] | 0.15 | 15
34 | CC[C@@](C)(N)c1cnc(O[C@H](C)C[C@@H](C)S(=O)(=O)CC)c2cnc(Nc3ccc4c(n3)[C@@H](C)C(C)(C)OC4=O)cc12 [Compound 143] | 0.15 | 16
35 | COC[C@@](C)(N)c1cnc(O[C@H](C)C[C@@H](C)S(C)(=O)=O)c2cnc(Nc3ccc4c(n3)[C@@H](C)C(C)(C)OC4=O)cc12 [Compound 144] | 0.23 | 39
36 | COC[C@@](C)(N)c1cnc(O[C@H]2C[C@@H](S(=O)(=O)C3CC3)C2)c2cnc(Nc3ccc4c(n3)[C@@H](C)C(C)(C)OC4=O)cc12 [Compound 145] | 0.21 | 32
37 | COC[C@@](C)(N)c1cnc(O[C@H]2C[C@@H](S(C)(=O)=O)C2)c2cnc(Nc3ccc4c(n3)C3(CC3)C(C)(C)OC4=O)cc12 [Compound 162] | 0.3 | 32
